The values below come from patent US10688082B2, “Aminopyrazine compounds with A2A antagonist properties” (Merck Sharp & Dohme Corp., priority 2015, dated 2020).

This assay has as its target T1, human A2a receptor (Homo sapiens, UniProt P29274).
T1 construct: purchased Perkin-Elmer RBHA2AM400UA; host or cells: HEK293 cells (membranes)
Put plainly: Competition binding assay using Scintillation Proximity technology (A2a activity). The conditions noted are these: membranes from HEK293 cells expressing the human A2a receptor; 0.5 nM tritiated ligand; Cheng-Prusoff. In a few lines:
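Membranes from HEK293 cells expressing human A2a, pretreated with adenosine deaminase, competed against 0.5 nM tritiated pyrazolotriazolopyrimidine ligand with WGA SPA beads, 1 h at room temperature with agitation. Compounds 3000–0.152 nM final; nonspecific binding with 1 μM CGS15943. Ki from […] via Cheng-Prusoff.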
Background: Scintillation proximity formats need no separation of bound from free tracer.

T1 sequence (P29274 whole entry): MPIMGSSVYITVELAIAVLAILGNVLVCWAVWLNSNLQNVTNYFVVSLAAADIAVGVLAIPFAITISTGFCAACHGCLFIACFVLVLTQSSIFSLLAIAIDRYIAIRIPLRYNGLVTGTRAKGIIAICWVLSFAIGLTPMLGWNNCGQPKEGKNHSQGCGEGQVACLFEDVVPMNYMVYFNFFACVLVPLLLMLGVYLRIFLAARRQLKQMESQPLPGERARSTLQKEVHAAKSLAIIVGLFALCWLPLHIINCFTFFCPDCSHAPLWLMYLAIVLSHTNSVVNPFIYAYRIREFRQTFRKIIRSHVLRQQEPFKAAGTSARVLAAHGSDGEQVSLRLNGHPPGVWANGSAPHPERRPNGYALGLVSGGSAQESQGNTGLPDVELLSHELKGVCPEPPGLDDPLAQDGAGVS

As to `COc1cccc2c1nc(N)n1nc(-c3nnc(NCc4ccc(F)cc4F)o3)cc21` [Ex-103, 5-(5-amino-7-methoxypyrazolo[1,5-c]quinazolin-2-yl)-N-(2,4-difluorobenzyl)-1,3,4-oxadiazol-2-amine], the affinity, expressed as Ki, was 23 nM.
For `Nc1nc2ccc(F)cc2c2cc(Cc3ccccc3)nn12` [Ex-104, 2-benzyl-9-fluoropyrazolo[1,5-c]quinazolin-5-amine], the Ki (in general, the dissociation constant of the complex between target and ligand, obtained from inhibition or displacement) turned out to be 67 nM.
As to `Nc1nc2ccc(F)cc2c2cc(Cc3cccc4cccnc34)nn12` [Ex-105, 9-fluoro-2-(quinolin-8-ylmethyl)pyrazolo[1,5-c]quinazolin-5-amine], the Ki came to 45 nM. The Ki values of the last two compounds are within 1.5-fold of each other.
Take `Nc1nc2ccc(F)cc2c2cc(Cc3ccccc3N3CCOCC3)nn12` [Ex-106, 9-fluoro-2-(2-morpholinobenzyl)pyrazolo[1,5-c]quinazolin-5-amine]: the affinity corresponds to a Ki of 65 nM.
`Nc1nc2ccc(F)cc2c2cc(Cc3cccnc3N3CCOCC3)nn12` [Ex-107, 9-fluoro-2-((2-morpholinopyridin-3-yl)methyl)pyrazolo[1,5-c]quinazolin-5-amine] displayed a Ki of 123 nM.
Take `Nc1nc2c(F)cccc2c2cc(Cc3ccccc3)nn12` [Ex-108, 2-benzyl-7-fluoropyrazolo[1,5-c]quinazolin-5-amine]: the affinity, expressed as Ki, was 14 nM.
As for `Nc1nc2c(F)cccc2c2cc(Cc3cccc4cccnc34)nn12` [Ex-109, 7-fluoro-2-(quinolin-8-ylmethyl)pyrazolo[1,5-c]quinazolin-5-amine], the Ki amounted to 6 nM.
On to `Nc1nc2c(F)cccc2c2cc(C(=O)N3CCN(c4ccccn4)CC3)nn12` [Ex-110, (5-amino-7-fluoropyrazolo[1,5-c]quinazolin-2-yl)(4-(pyridin-2-yl)piperazin-1-yl)methanone], for which the Ki turned out to be 32 nM.
The compound `Nc1nc2c(F)cccc2c2cc(C(=O)N3CCN(c4ccc(F)cc4F)CC3)nn12` [Ex-111, (5-amino-7-fluoropyrazolo[1,5-c]quinazolin-2-yl)(4-(2,4-difluorophenyl)piperazin-1-yl)methanone] returned a Ki of 94 nM.
As for `Nc1nc2c(F)cccc2c2cc(-c3nnc(-c4cccc5cccnc45)o3)nn12` [Ex-112, 7-fluoro-2-(5-(quinolin-8-yl)-1,3,4-oxadiazol-2-yl)pyrazolo[1,5-c]quinazolin-5-amine], the Ki was found to be 131 nM.
Under `Nc1nc2c(F)cccc2c2cc(-c3nnc(Cc4ccc5cccnc5c4)o3)nn12` [Ex-113, 7-fluoro-2-(5-(quinolin-7-ylmethyl)-1,3,4-oxadiazol-2-yl)pyrazolo[1,5-c]quinazolin-5-amine] stands 7 nM; under `Nc1nc2ccc(F)cc2c2cc(C(=O)N3CCN(c4ccc(F)cc4F)CC3)nn12` [Ex-114, (5-amino-9-fluoropyrazolo[1,5-c]-quinazolin-2-yl)(4-(2,4-difluorophenyl)piperazin-1-yl)methanone], 8 nM.
In turn, `Nc1nc2ccc(F)cc2c2cc(C(=O)N3CCN(c4ccccn4)CC3)nn12` [Ex-115, (5-amino-9-fluoropyrazolo[1,5-c]-quinazolin-2-yl)(4-(pyridin-2-yl)-piperazin-1-yl)methanone] had a Ki of 41 nM. This Ki is about 5.1-fold higher than that of the compound before.
